≈ marks a conversion by molar mass, not a printed value.
Columns and labels:
Assay type in all cases: cell-based
HIV-1/188-Leu = assay: Inhibition of HIV-1 induced syncytium formation in CEM cells, RT mutant 188-Leu; conditions: Human immunodeficiency virus 1, CCRF-CEM, 96 h, Table 2B, day 4, averages of 2 to 3 independent experiments, read-out: Antiviral Activity of Comparative Compounds EC50, 188-Leu
Text: (§1) CEM cells were obtained from the American Tissue Cell Culture Collection (Rockville, Md.). HIV-1(IIIB) was originally obtained from the culture supernatant of persistently HIV-1-infected H9 cells and was provided by R. C. Gallo and M. Popovic (National Cancer Institute, National Institutes of Health, Bethesda, Md.). […] 67: 5353-5359 (1993); HIV-1/Lys-138 ("Lys-138") was selected for resistance against TSAO-m^3T as described in Balzarini et al, Virology 192: 246-253 (1993) and Balzarini et al, Proc. Nat. Acad. Sci. USA 90: 6952-6956 (1993); HIV-1/181-Cys ("181-Cys") was selected for resistance against pyridinone L-697,661 as described in Balzarini et al, Virology 192: 246-253 (1993); and HIV-1/188-His ("188-His") was selected for resistance against HEPT as described in Balzarini et al, Mol. Pharmocol. 44: 694-701 (1993). 188-His was then further converted to HIV-1/188-Leu "188-Leu") upon further passage in cell culture in the absence of the HEPT.
(§2) CEM cells were suspended at ≈300,000 cells per ml of culture medium and infected with approximately 100 CCID50 (CCID50 being the 50% cell culture infective dose) of HIV-1(IIIB) or one of the HIV-1 RT mutant strains described above. Then 100 μl of the infected cell suspensions was added to 200 μl microtiter plate wells containing 100 μl of appropriate serial (5-fold) dilutions of the test compounds. The inhibitory effect of the test compounds on HIV-1 induced syncytium formation in CEM cells was examined microscopically on day 4 post infection.

HIV-1/Lys-138 = assay: Inhibition of HIV-1 induced syncytium formation in CEM cells, RT mutant 138-Lys; conditions: Table 2B, day 4, averages of 2 to 3 independent experiments; for EC50: Human immunodeficiency virus 1, CCRF-CEM, 96 h, read-out: Antiviral Activity of Comparative Compounds EC50, 138-Lys
Summary of the method: (§3)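 CEM cells (≈300,000/ml) infected with about 100 CCID50 of HIV-1(IIIB) or RT mutant strains, then added to 5-fold serial dilutions of test compounds. Inhibition of virus-induced syncytium formation scored microscopically on day 4 post infection.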

HIV-1/181-Cys = assay: Inhibition of HIV-1 induced syncytium formation in CEM cells, RT mutant 181-Cys; conditions: Table 2B, day 4, averages of 2 to 3 independent experiments; for EC50: Human immunodeficiency virus 1, CCRF-CEM, 96 h, read-out: Antiviral Activity of Comparative Compounds EC50, 181-Cys
Summary of the method: as §3

HIV-1/106-Ala = assay: Inhibition of HIV-1 induced syncytium formation in CEM cells, RT mutant 106-Ala; conditions: Table 2B, day 4, averages of 2 to 3 independent experiments; for EC50: Human immunodeficiency virus 1, CCRF-CEM, 96 h, read-out: Antiviral Activity of Comparative Compounds EC50, 106-Ala
Summary of the method: as §3

HIV-1/100-Ile = assay: Inhibition of HIV-1 induced syncytium formation in CEM cells, RT mutant 100-Ile; conditions: Table 2B, day 4, averages of 2 to 3 independent experiments; for EC50: Human immunodeficiency virus 1, CCRF-CEM, 96 h, read-out: Antiviral Activity of Comparative Compounds EC50, 100-Ile
Summary of the method: as §3

HIV-1/103-Asn = assay: Inhibition of HIV-1 induced syncytium formation in CEM cells, RT mutant 103-Asn; conditions: Human immunodeficiency virus 1, CCRF-CEM, 96 h, Table 2B, day 4, averages of 2 to 3 independent experiments, read-out: Antiviral Activity of Comparative Compounds EC50, 103-Asn
Text: as §1, §2

HIV-1(IIIB) = assay: Inhibition of HIV-1 induced syncytium formation in CEM cells, wild type; conditions: Table 2B, WT = HIV-1(IIIB), day 4, averages of 2 to 3 independent experiments; for EC50: Human immunodeficiency virus 1, IIIB, CCRF-CEM, 96 h, read-out: Antiviral Activity of Comparative Compounds EC50, WT
Summary of the method: as §3

in vitro = conditions: human, cem cells, CC50 (50% cytostatic concentration), Table 2B; CEM cell proliferation; averages of 2 to 3 independent experiments
Summary of the method: (§4)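 In CEM cells, the cytostatic value is the compound concentration giving 50% inhibition of cell proliferation. Parallel work used HIV-1(IIIB) and culture-selected resistant strains Lys-138, 181-Cys, 188-His and 188-Leu.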

CEM cells = assay: in vitro; conditions: Table 2B; CEM cell proliferation; averages of 2 to 3 independent experiments
Summary of the method: as §4

Structure (SMILES) | EC50 (HIV-1/188-Leu) [µg/mL] | EC50 (HIV-1/Lys-138) [µg/mL] | EC50 (HIV-1/181-Cys) [µg/mL] | EC50 (HIV-1/106-Ala) [µg/mL] | EC50 (HIV-1/100-Ile) [µg/mL] | EC50 (HIV-1/103-Asn) [µg/mL] | EC50 (HIV-1(IIIB)) [µg/mL] | CC50 (in vitro) [µg/mL] | Antiviral Activity of Comparative Compounds EC50, 138-Lys (HIV-1/Lys-138) [µg/mL] | Antiviral Activity of Comparative Compounds EC50, 181-Cys (HIV-1/181-Cys) [µg/mL] | Antiviral Activity of Comparative Compounds EC50, 106-Ala (HIV-1/106-Ala) [µg/mL] | Antiviral Activity of Comparative Compounds EC50, 100-Ile (HIV-1/100-Ile) [µg/mL] | Antiviral Activity of Comparative Compounds EC50, WT (HIV-1(IIIB)) [µg/mL] | CC50 (50% cytostatic concentration) (CEM cells) [µg/mL]
CC(C)=CCOc1cc(NC(=O)c2ccsc2C)ccc1Cl [Compound 27] | > 2 | 0.15 (≈ 0.447 µM) | 0.46 (≈ 1.37 µM) | 0.11 (≈ 0.328 µM) | 0.36 (≈ 1.07 µM) | 0.5 (≈ 1.49 µM) | 0.01 (≈ 0.0298 µM) | 6 (≈ 17.9 µM) |  |  |  |  |  | 
Cc1sccc1C(=S)Nc1ccc(Cl)c(OCC2CCCC2)c1 [Compound 28] | > 2 | 0.11 (≈ 0.301 µM) | 0.5 (≈ 1.37 µM) | 0.23 (≈ 0.628 µM) | 0.22 (≈ 0.601 µM) | 0.33 (≈ 0.902 µM) | 0.029 (≈ 0.0792 µM) | 4.3 (≈ 11.8 µM) |  |  |  |  |  | 
Cc1sccc1C(=S)Nc1ccc(Cl)c(OCC(C)(C)C)c1 [Compound 29] | > 2 | 0.05 (≈ 0.141 µM) | 0.55 (≈ 1.55 µM) | 0.5 (≈ 1.41 µM) | 0.5 (≈ 1.41 µM) | 0.43 (≈ 1.21 µM) | 0.14 (≈ 0.396 µM) | 6.2 (≈ 17.5 µM) |  |  |  |  |  | 
CC(C)=CCOc1cc(NC(=O)c2ccoc2C)ccc1Cl [Compound 30] | > 2 | 0.23 (≈ 0.719 µM) | 0.65 (≈ 2.03 µM) | 0.34 (≈ 1.06 µM) | 1.27 (≈ 3.97 µM) | 1.67 (≈ 5.22 µM) | 0.015 (≈ 0.0469 µM) | > 100 |  |  |  |  |  | 
Cc1sccc1C(=O)Nc1ccc(Cl)c(C(=O)OC(C)C)c1 [Compound 31] | > 2 | 0.93 (≈ 2.75 µM) | 0.73 (≈ 2.16 µM) | 0.6 (≈ 1.78 µM) | ≥ 2 | ≥ 2 | 0.09 (≈ 0.266 µM) | 5.5 (≈ 16.3 µM) |  |  |  |  |  | 
Cc1sccc1C(=O)Nc1ccc(Cl)c(C(=O)OC(C(C)C)C(C)C)c1 [Compound 32] | > 2 | ≥ 2 | 0.95 (≈ 2.41 µM) | ≥ 2 | ≥ 2 | ≥ 2 | 0.16 (≈ 0.406 µM) | 4.1 (≈ 10.4 µM) |  |  |  |  |  | 
Cc1sccc1C(=O)Nc1ccc(Cl)c(OCCC(C)C)c1 [Compound 33] | > 2 | 0.62 (≈ 1.84 µM) | 1.07 (≈ 3.17 µM) | 0.65 (≈ 1.92 µM) | 0.95 (≈ 2.81 µM) | 1 (≈ 2.96 µM) | 0.063 (≈ 0.186 µM) | 7 (≈ 20.7 µM) |  |  |  |  |  | 
CC=CCSc1cc(NC(=O)c2ccsc2C)ccc1Cl [Compound 34] | > 2 | 0.5 (≈ 1.48 µM) | 1.2 (≈ 3.55 µM) | 0.28 (≈ 0.829 µM) | 0.65 (≈ 1.92 µM) | 0.8 (≈ 2.37 µM) | 0.08 (≈ 0.237 µM) | 4.8 (≈ 14.2 µM) |  |  |  |  |  | 
CC=CCSc1cc(NC(=O)c2ccoc2C)ccc1Cl [Compound 35] | > 2 | 0.7 (≈ 2.18 µM) | 1.6 (≈ 4.97 µM) | 0.8 (≈ 2.49 µM) | 1.5 (≈ 4.66 µM) | 0.55 (≈ 1.71 µM) | 0.16 (≈ 0.497 µM) | 5.9 (≈ 18.3 µM) |  |  |  |  |  | 
CSc1sccc1C(=O)Nc1ccc(Cl)c(C=NOC(C)(C)C)c1 [Compound 36] | > 2 | 0.85 (≈ 2.22 µM) | 1.6 (≈ 4.18 µM) | 0.85 (≈ 2.22 µM) | 1.23 (≈ 3.21 µM) | 1.2 (≈ 3.13 µM) | 0.18 (≈ 0.47 µM) | 7.8 (≈ 20.4 µM) |  |  |  |  |  | 
Cc1occc1C(=O)Nc1ccc(Cl)c(OCCC(C)C)c1 [Compound 37] | > 2 | 1.25 (≈ 3.88 µM) | 1.73 (≈ 5.38 µM) | 1.3 (≈ 4.04 µM) | ≥ 2 | ≥ 2 | 0.16 (≈ 0.497 µM) | 5 (≈ 15.5 µM) |  |  |  |  |  | 
Cc1c(C(=O)Nc2ccc(Cl)c(C=NOC(C)(C)C)c2)ccn1C [Compound 38] | > 2 | ≥ 2 | > 2 | 0.7 (≈ 2.01 µM) | ≥ 2 | ≥ 2 | 0.08 (≈ 0.23 µM) | 5.5 (≈ 15.8 µM) |  |  |  |  |  | 
Cc1occc1C(=S)Nc1ccc(Cl)c(OCC(C)(C)C)c1 [Compound 39] | > 2 | 0.5 (≈ 1.48 µM) | ≥ 2 | > 2 | 1.4 (≈ 4.14 µM) | 0.7 (≈ 2.07 µM) | 0.15 (≈ 0.444 µM) | 4.1 (≈ 12.1 µM) |  |  |  |  |  | 
CC=CCOc1cc(NC(=O)c2ccoc2C)ccc1Cl [Compound 40] | > 2 | 1.2 (≈ 3.92 µM) | > 2 | > 2 | 1.4 (≈ 4.58 µM) | ≥ 2 | 0.24 (≈ 0.785 µM) | 5.8 (≈ 19 µM) |  |  |  |  |  | 
CC1=C(C(=O)Nc2ccc(Cl)c(OCCC(C)C)c2)SCCO1 [Compound 41] | > 2 | ≥ 2 | ≥ 2 | ≥ 2 | ≥ 2 | ≥ 2 | 0.28 (≈ 0.787 µM) | > 100 |  |  |  |  |  | 
Cc1sccc1C(=O)Nc1ccc(Cl)c(OCC2CCCC2)c1 [Compound 42] | > 2 | ≥ 2 | ≥ 2 | ≥ 2 | ≥ 2 | ≥ 2 | 0.36 (≈ 1.03 µM) | 5 (≈ 14.3 µM) |  |  |  |  |  | 
CC=CCOc1cc(NC(=O)C2=C(CC)OCCS2)ccc1Cl [Compound 43] | > 2 | 1.3 (≈ 3.67 µM) | > 2 | 4.5 (≈ 12.7 µM) | 1.2 (≈ 3.39 µM) | 1.3 (≈ 3.67 µM) | 0.65 (≈ 1.84 µM) | 11 (≈ 31.1 µM) |  |  |  |  |  | 
Cc1occc1C(=S)Nc1ccc(Cl)c(OCCC(C)C)c1 [Compound 44] | > 10 | 0.03 (≈ 0.0888 µM) | 0.08 (≈ 0.237 µM) | 0.06 (≈ 0.178 µM) | 0.035 (≈ 0.104 µM) | 0.08 (≈ 0.237 µM) | 0.0073 (≈ 0.0216 µM) | > 100 |  |  |  |  |  | 
CC=CCOc1cc(NC(=O)c2ccsc2C)ccc1Cl [Compound 45] | > 10 | 0.65 (≈ 2.02 µM) | 0.5 (≈ 1.55 µM) | 0.85 (≈ 2.64 µM) | 0.6 (≈ 1.86 µM) | 0.95 (≈ 2.95 µM) | 0.15 (≈ 0.466 µM) | 87 (≈ 270 µM) |  |  |  |  |  | 
Cc1occc1C(=S)Nc1ccc(Cl)c(OC(=O)OC(C)C)c1 [Compound 46] | ≥ 2 | 0.6 (≈ 1.7 µM) | 5.5 (≈ 15.5 µM) | 3 (≈ 8.48 µM) | 4.5 (≈ 12.7 µM) | 4 (≈ 11.3 µM) | 0.37 (≈ 1.05 µM) | 25 (≈ 70.7 µM) |  |  |  |  |  | 
CON=Cc1cc(NC(=O)c2ccoc2C)ccc1OC [Compound 47] | ≥ 10 | ≥ 10 | ≥ 10 | ≥ 10 | ≥ 10 | ≥ 10 | 0.23 (≈ 0.798 µM) | > 100 |  |  |  |  |  | 
Cc1sccc1C(=O)Nc1ccc(Cl)c(C(=O)OC2CCCCC2)c1 [Compound 58] |  |  |  |  |  |  |  |  | 6.0 | 5.0 | 7.0 | 5.5 | 0.19 | 6.5 (≈ 17.2 µM)
Cc1sccc1C(=S)Nc1ccc(Cl)c(C(=O)OC2CCCCC2)c1 [Compound 59] |  |  |  |  |  |  |  |  | 0.40 | 0.35 | 0.60 | 0.65 | 0.09 | 15 (≈ 38.1 µM)
Cc1occc1C(=S)Nc1ccc(Cl)c(C=NOC(C)(C)C)c1 [Compound 114] |  |  |  |  |  |  |  |  | 0.075 | 0.075 | 0.13 | 0.085 | 0.05 | 5.8 (≈ 16.5 µM)

— patent US5696151A, “Compounds useful for the inhibition of the replication of HIV-1 and HIV-1 mutants” (priority 1995, dated 1997)
